Values quoted from earlier work as cited in patent US8645075B2, “Method for predicting organ toxicity and a system thereof” (Strand Life Sciences PVT Ltd., priority 2008, dated 2014).
Where two headings read alike, the source gives them in different places.

How the values were obtained:
CPT1 = target: T1, CPT1 (Homo sapiens, UniProt P50416)
T1 sequence (P50416 1-773): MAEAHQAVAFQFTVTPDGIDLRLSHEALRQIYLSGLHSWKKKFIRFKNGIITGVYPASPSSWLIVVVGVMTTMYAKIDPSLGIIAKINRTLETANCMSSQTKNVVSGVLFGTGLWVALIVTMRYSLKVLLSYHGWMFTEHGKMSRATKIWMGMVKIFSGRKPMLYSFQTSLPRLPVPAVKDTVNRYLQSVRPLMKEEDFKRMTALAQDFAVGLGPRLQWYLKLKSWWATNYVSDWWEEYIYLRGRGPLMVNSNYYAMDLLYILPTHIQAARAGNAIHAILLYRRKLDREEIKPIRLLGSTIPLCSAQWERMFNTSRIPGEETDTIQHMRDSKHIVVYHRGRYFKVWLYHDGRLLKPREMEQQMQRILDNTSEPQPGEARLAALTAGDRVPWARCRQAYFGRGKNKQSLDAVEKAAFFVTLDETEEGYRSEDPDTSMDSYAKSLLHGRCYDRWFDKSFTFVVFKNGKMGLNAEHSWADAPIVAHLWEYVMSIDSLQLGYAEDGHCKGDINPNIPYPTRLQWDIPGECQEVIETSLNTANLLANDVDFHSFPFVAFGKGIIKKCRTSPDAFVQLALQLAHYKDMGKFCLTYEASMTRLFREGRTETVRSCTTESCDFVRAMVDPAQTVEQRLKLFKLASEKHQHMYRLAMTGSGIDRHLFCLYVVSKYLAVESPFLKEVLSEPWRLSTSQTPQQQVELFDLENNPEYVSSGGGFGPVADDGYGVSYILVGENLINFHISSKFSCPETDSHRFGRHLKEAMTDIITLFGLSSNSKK

FoF1 ATPase = conditions: experimental value used for model validation

## CCCCc1oc2ccccc2c1C(=O)c1cc(I)c(OCCN(CC)CC)c(I)c1 [Amiodarone]
CPT1; experimental value used for model validation
  Triglyceride accumulation, Experiment: 150%

## C=C(C)[C@]12C[C@@H](C)[C@@]34O[C@](c5ccccc5)(O[C@@H]1[C@@H]3[C@@H]1O[C@]1(CO)[C@@H](O)[C@]1(O)C(=O)C(C)=C[C@H]14)O2 [Daphnetoxin]
FoF1 ATPase
  EC value (Energy Charge), Experiment: 0.52

## C1CCC(C(CC2CCCCN2)C2CCCCC2)CC1 (stereo not drawn) [Perhexilline]
CPT1
  Triglyceride accumulation, Experiment: 98%
